Measured values published in patent US8242251B2, “Unsymmetrical cyanine dimer compounds and their application” (Life Technologies Corporation, priority 2003, dated 2012).
Entries after “also recorded” stand apart in the source; their conditions may differ.

Legend:
[1] = test system: Bovine pulmonary arterial endothelial (BPEA) cells; assay: Nucleic acid binding in live eukaryotic cells, BPAE (Example 41); format: cell-based; conditions: 10 μM
Procedure: (§1) Bovine pulmonary arterial endothelial (BPEA) cells and HeLa human cervical cancer cells were grown in media for one day after plating on coverslips. Cells were labeled with 1 μM or 10 μM of Compound 21 for HeLa cells, or 10 μM in BPAE cells, in media at 37° C. for 20 minutes, then rinsed twice and mounted in warm medium. Coverslips were examined on a Nikon Eclipse 800 upright fluorescent microscope and imaged with a far red filter set, a Princeton Instruments MicroMax cooled CCD camera, and Universal Imaging MetaMorph imaging software.

RNA versus DNA = assay: Screening of fluorescence properties and relative fluorescence enhancement with RNA versus DNA (Table 3); format: binding; conditions: fluorescence enhancement when associated with RNA to that when associated with DNA
[2] = test system: HeLa human cervical cancer cells; assay: Nucleic acid binding in live eukaryotic cells, HeLa (Example 41); format: cell-based
Procedure: as §1

cell permeability in live cells ([2]; 20 minutes 37° C.): cell permeable
SMILES: C[n+]1c(/C=C2\C=C(N3CCN(C4=C/C(=C\c5oc6ccccc6[n+]5C)c5ccccc5N4c4ccccc4)CC3)N(c3ccccc3)c3ccccc32)oc2ccccc21.[Cl-].[Cl-] [Compound 20]
labeling pattern in BPAE cells [1]: no specific labeling evident, and much higher off-cell background
Fluorescence Enhancement Ratio (RNA/DNA) (RNA versus DNA): 8.5
selective detection of RNA in live cells [2]: did not demonstrate selective detection of RNA in live cells
labeling pattern in HeLa cells ([2]; 1 μM or 10 μM, far red filter set): mitochondrial labeling, with stronger punctate spots within the mitochondria, typical of mitochondrial DNA staining; also recorded: very dim nucleolar labeling
